Legend:
A375 (melanoma) cells = assay: Proliferation assay (CellTiter-Glo), A375; format: cell-based; details: Homo sapiens, A-375, 72 h, 3 days
Procedure: (§1) A375 (melanoma), Colo-205 (colon cancer), Miapaca (pancreatic), HPAFII (pancreatic), sNF02.0 (neurofibromatosis type 1), sNF96.2 (neurofibromatosis type 1) and 8505 (Thyroid) cells were grown and maintained in RPMI-1640 medium containing 100 U/mL penicillin-streptomycin and 10% fetal bovine serum. Cells were in growth medium in 96-well opaque-walled clear bottom plates and incubated the in the CO2 incubator overnight before treatment. Cells were treated with compounds diluted in DMSO and a 10 point 3-fold serial dilutions were done. Plates were placed in 37° C., 5% CO2 for to incubate for 3 days. Before they were developed by adding 100 μL of CellTiter-Glo reagent (Promega) to the assay plate, plates were shaken briefly for 2 mins and allowed to incubate at rt for 10 mins. The bottom of the plates was pasted with white back seal and luminescence was recorded with Flexstation3 with setting of luminescence, integration time 500 ms.

[1] = tested on: Colo-205 (colon cancer) cells; assay: Proliferation assay (CellTiter-Glo), Colo-205; format: cell-based; details: Homo sapiens, COLO 205, 72 h, Colo205 cells, 3 days
Procedure: as §1

Activated ERK1 = Activated ERK1 (Homo sapiens (Human), UniProt P27361); assay: Active ERK1 kinase assay (Mobility Shift Assay); format: biochemical
Outline: (§2)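 ERK1 or ERK2 premixed with compound for 30 min at rt in 20 mM HEPES pH7.5, 0.01% Triton X-100, 2 mM DTT; reaction started with Fl-substrate, ATP and metal, run 1 h at rt. Microfluidic mobility-shift separation of product and substrate peptides; activity as P/(P+S) from peak heights.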

Activated ERK2 = Activated ERK2 (Homo sapiens (Human), UniProt P28482); assay: Active ERK2 kinase assay (Mobility Shift Assay); format: biochemical
Outline: as §2

[2] = tested on: Mia Paca-2 (pancreatic) cells; assay: Proliferation assay (CellTiter-Glo), Mia Paca-2; format: cell-based; details: Homo sapiens, 72 h, Mia Paca-2 cells, 3 days
Procedure: as §1

[3] = tested on: HPAFII (pancreatic) cells; assay: Proliferation assay (CellTiter-Glo), HPAFII; format: cell-based; details: Homo sapiens, HPAF-II, 72 h, 3 days
Procedure: as §1

[4] = tested on: sNF02.2 (neurofibromatosis type 1) cells; assay: Proliferation assay (CellTiter-Glo), sNF02.2; format: cell-based; details: 72 h, sNF02.2 cells, 3 days
Procedure: as §1

[5] = tested on: sNF96.2 (neurofibromatosis type 1) cells; assay: Proliferation assay (CellTiter-Glo), sNF96.2; format: cell-based; details: 72 h, sNF96.2 cells, 3 days
Procedure: as §1

8505C (Thyroid) cells = assay: Proliferation assay (CellTiter-Glo), 8505C; format: cell-based; details: Homo sapiens, 72 h, 8505C cells, 3 days
Procedure: as §1

Chain of Activated ERK2 (P28482 whole entry): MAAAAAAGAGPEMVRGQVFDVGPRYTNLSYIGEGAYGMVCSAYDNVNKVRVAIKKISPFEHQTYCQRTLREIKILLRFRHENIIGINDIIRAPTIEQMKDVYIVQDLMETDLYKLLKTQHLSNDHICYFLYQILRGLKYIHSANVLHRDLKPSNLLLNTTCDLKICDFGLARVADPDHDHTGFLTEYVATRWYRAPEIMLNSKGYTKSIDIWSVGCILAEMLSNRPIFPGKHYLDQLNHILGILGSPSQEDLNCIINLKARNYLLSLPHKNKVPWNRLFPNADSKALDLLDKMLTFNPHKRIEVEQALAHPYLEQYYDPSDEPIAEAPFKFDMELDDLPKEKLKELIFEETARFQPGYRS
Chain of Activated ERK1 (P27361 whole entry): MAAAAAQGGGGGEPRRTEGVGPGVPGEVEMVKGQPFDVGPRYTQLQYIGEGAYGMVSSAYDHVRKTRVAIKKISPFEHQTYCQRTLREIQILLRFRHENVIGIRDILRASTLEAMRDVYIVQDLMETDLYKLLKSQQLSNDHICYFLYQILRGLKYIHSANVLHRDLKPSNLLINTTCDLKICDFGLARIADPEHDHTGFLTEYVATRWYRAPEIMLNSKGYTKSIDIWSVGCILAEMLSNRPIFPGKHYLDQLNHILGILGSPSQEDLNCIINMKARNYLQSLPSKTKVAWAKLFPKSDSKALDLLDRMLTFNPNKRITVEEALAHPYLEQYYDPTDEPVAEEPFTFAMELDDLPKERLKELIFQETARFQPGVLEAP

| IC50 (A375 (melanoma) cells) | IC50 [1] | IC50 (Activated ERK1) | IC50 (Activated ERK2) | IC50 [2] | Structure (SMILES) | IC50 [3] | IC50 [4] | IC50 [5] | IC50 (8505C (Thyroid) cells) |
| --- | --- | --- | --- | --- | --- | --- | --- | --- | --- |
| 500 to 1000 nM | ≤ 500 nM |  |  |  | Cn1nccc1Nc1nccc(-c2ccn([C@H](CO)c3ccc(Cl)c(F)c3)c(=O)c2)n1 [GDC-0994] |  |  |  |  |
| ≤ 500 nM |  | ≤ 50 nM | ≤ 50 nM |  | O=C(CN1CC[C@]2(CCN(c3ccc4[nH]nc(-c5ccnc(C(F)(F)F)c5)c4c3)C2=O)C1)N1CC=C(c2ccc(-c3ncc(F)cn3)cc2)CC1 [Example 28, (S)-7-(2-(4-(4-(5-Fluoropyrimidin-2-yl)phenyl)-3,6-dihydropyridin-1(2H)-yl)-2-oxoethyl)-2-(3-(2-(trifluoromethyl)pyridin-4-yl)-1H-indazol-5-yl)-2,7-diazaspiro[4.4]nonan-1-one] |  |  |  |  |
| ≤ 500 nM |  | ≤ 50 nM | ≤ 50 nM | ≤ 500 nM | Cn1cnc(-c2ccc(C3=CCN(C(=O)CN4CC[C@]5(CCN(c6ccc7[nH]nc(-c8ccc(F)cc8)c7c6)C5=O)C4)CC3)cc2)n1 [Example 29, (S)-2-(3-(4-Fluorophenyl)-1H-indazol-5-yl)-7-(2-(4-(4-(1-methyl-1H-1,2,4-triazol-3-yl)phenyl)-3,6-dihydropyridin-1(2H)-yl)-2-oxoethyl)-2,7-diazaspiro[4.4]nonan-1-one] | ≤ 500 nM | ≤ 500 nM | ≤ 500 nM | 500 to 1000 nM |
| ≤ 500 nM | ≤ 500 nM | ≤ 50 nM |  | ≤ 500 nM | O=C(Nc1ccc2[nH]nc(-c3ccncc3)c2c1)[C@@H]1CCN(CC(=O)N2CCN(c3ccc(-c4ncccn4)cc3)CC2)C1 [SCH772984] | ≤ 500 nM | ≤ 500 nM | 500 to 1000 nM | 500 to 1000 nM |
| ≤ 500 nM | ≤ 500 nM | ≤ 50 nM | ≤ 50 nM | ≤ 500 nM | CC(C)Oc1ccc(-c2n[nH]c3ccc(N4CC[C@]5(CCN(CC(=O)N6CC=C(c7ccc(-c8ncn(C)n8)cc7)CC6)C5)C4=O)cc23)cn1 [Example 10, (S)-2-(3-(6-Isopropoxypyridin-3-yl)-1H-indazol-5-yl)-7-(2-(4-(4-(1-methyl-1H-1,2,4-triazol-3-yl)phenyl)-3,6-dihydropyridin-1 (2H)-yl)-2-oxoethyl)-2,7-diazaspiro[4.4]nonan-1-one] | ≤ 500 nM | ≥ 1000 nM | 500 to 1000 nM | ≥ 1000 nM |
| ≤ 500 nM | ≤ 500 nM | ≤ 50 nM | ≤ 50 nM | ≤ 500 nM | Cc1cc(-c2n[nH]c3ccc(N4CC[C@]5(CCN(CC(=O)N6CC=C(c7ccc(-c8ncn(C)n8)cc7)CC6)C5)C4=O)cc23)ccn1 [Example 8, (S)-7-(2-(4-(4-(1-Methyl-1H-1,2,4-triazol-3-yl)phenyl)-3,6-dihydropyridin-1(2H)-yl)-2-oxoethyl)-2-(3-(2-methylpyridin-4-yl)-1H-indazol-5-yl)-2,7-diazaspiro[4.4]nonan-1-one] | ≤ 500 nM | ≤ 500 nM | ≤ 500 nM | ≤ 500 nM |
| ≤ 500 nM |  |  | ≤ 50 nM | ≤ 500 nM | Cn1cnc(-c2ccc(C3=CCN(C(=O)CN4CC[C@]5(CCN(c6ccc7[nH]nc(-c8ccnc(C9(C(F)(F)F)CC9)c8)c7c6)C5=O)C4)CC3)cc2)n1 [Example 38, (S)-7-(2-(4-(4-(1-Methyl-1H-1,2,4-triazol-3-yl)phenyl)-3,6-dihydropyridin-1 (2H)-yl)-2-oxoethyl)-2-(3-(2-(1-(trifluoromethyl)cyclopropyl)pyridin-4-yl)-1H-indazol-5-yl)-2,7-diazaspiro[4.4]nonan-1-one] | ≤ 500 nM | ≥ 1000 nM | 500 to 1000 nM | ≥ 1000 nM |
| ≤ 500 nM | ≤ 500 nM | ≤ 50 nM | ≤ 50 nM |  | CC(C)Oc1ccc(-c2n[nH]c3ccc(N4CC[C@]5(CCN(CC(=O)N6CC=C(c7ccc(-c8cn(C)nn8)cc7)CC6)C5)C4=O)cc23)cn1 [Example 15, (S)-2-(3-(6-isopropoxypyridin-3-yl)-1H-indazol-5-yl)-7-(2-(4-(4-(1-methyl-1H-1,2,3-triazol-4-yl)phenyl)-3,6-dihydropyridin-1 (2H)-yl)-2-oxoethyl)-2,7-diazaspiro[4.4]nonan-1-one] |  |  |  |  |
| ≤ 500 nM | ≤ 500 nM | ≤ 50 nM | ≤ 50 nM |  | CCNc1nnc(-c2ccc(C3=CCN(C(=O)CN4CC[C@]5(CCN(c6ccc7[nH]nc(-c8ccc(OC(C)C)nc8)c7c6)C5=O)C4)CC3)cc2)o1 [Example 18, (S)-7-(2-(4-(4-(5-(Ethylamino)-1,3,4-oxadiazol-2-yl)phenyl)-3,6-dihydropyridin-1(2H)-yl)-2-oxoethyl)-2-(3-(6-isopropoxypyridin-3-yl)-1H-indazol-5-yl)-2,7-diazaspiro[4.4]nonan-1-one] |  |  |  |  |
| ≤ 500 nM | ≤ 500 nM | ≤ 50 nM | ≤ 50 nM |  | Cc1ccc(-c2n[nH]c3ccc(N4CCC5(CCN(CC(=O)N6CC=C(c7ccc(-c8ncn(C)n8)cc7)CC6)C5)C4=O)cc23)cn1 (stereo not drawn) [Example 7, 7-(2-(4-(4-(1-Methyl-1H-1,2,4-triazol-3-yl)phenyl)-3,6-dihydropyridin-1(2H)-yl)-2-oxoethyl)-2-(3-(6-methylpyridin-3-yl)-1H-indazol-5-yl)-2,7-diazaspiro[4.4]nonan-1-one] |  |  |  |  |
| ≤ 500 nM | ≤ 500 nM | ≤ 50 nM |  | ≤ 500 nM | CC(C)Nc1cc(-c2c[nH]c(C(=O)N[C@H](CO)c3cccc(Cl)c3)c2)c(Cl)cn1 [BVD-523] | ≤ 500 nM | ≥ 1000 nM | 500 to 1000 nM | ≥ 1000 nM |
| ≤ 500 nM | ≤ 500 nM | ≤ 50 nM | ≤ 50 nM |  | Cc1nnc(-c2ccc(C3=CCN(C(=O)CN4CC[C@]5(CCN(c6ccc7[nH]nc(-c8ccc(OC(C)C)nc8)c7c6)C5=O)C4)CC3)cc2)o1 [Example 17, (S)-2-(3-(6-Isopropoxypyridin-3-yl)-1H-indazol-5-yl)-7-(2-(4-(4-(5-methyl-1,3,4-oxadiazol-2-yl)phenyl)-3,6-dihydropyridin-1(2H)-yl)-2-oxoethyl)-2,7-diazaspiro[4.4]nonan-1-one] |  |  |  |  |
| 500 to 1000 nM | ≤ 500 nM | ≤ 50 nM | ≤ 50 nM |  | Cn1cnc(-c2ccc(C3=CCN(C(=O)CN4CC[C@]5(CCN(c6ccc7[nH]nc(C8CCNC(C(F)(F)F)C8)c7c6)C5=O)C4)CC3)cc2)n1 (stereo partly drawn) [Example 12, (5S)-7-(2-(4-(4-(1-Methyl-1H-1,2,4-triazol-3-yl)phenyl)-3,6-dihydropyridin-1(2H)-yl)-2-oxoethyl)-2-(3-(2-(trifluoromethyl)piperidin-4-yl)-1H-indazol-5-yl)-2,7-diazaspiro[4.4]nonan-1-one] |  |  |  |  |
| ≤ 500 nM |  | ≤ 50 nM | ≤ 50 nM |  | Cn1cnc(-c2ccc(C3=CCN(C(=O)CN4CC[C@]5(CCN(c6ccc7[nH]nc(-c8ccncc8F)c7c6)C5=O)C4)CC3)cc2)n1 [Example 31, (S)-2-(3-(3-Fluoropyridin-4-yl)-1H-indazol-5-yl)-7-(2-(4-(4-(1-methyl-1H-1,2,4-triazol-3-yl)phenyl)-3,6-dihydropyridin-1(2H)-yl)-2-oxoethyl)-2,7-diazaspiro[4.4]nonan-1-one] |  |  |  |  |
| ≤ 500 nM | ≤ 500 nM | ≤ 50 nM | ≤ 50 nM |  | Cn1cnc(-c2ccc(C3=CCN(C(=O)CN4CC[C@]5(CCN(c6ccc7[nH]nc(-c8ccnc(C(F)(F)F)c8)c7c6)C5=O)C4)CC3)cc2)n1 [Example 20, (S)-7-(2-(4-(4-(1-Methyl-1H-1,2,4-triazol-3-yl)phenyl)-3,6-dihydropyridin-1 (2H)-yl)-2-oxoethyl)-2-(3-(2-(trifluoromethyl)pyridin-4-yl)-1H-indazol-5-yl)-2,7-diazaspiro[4.4]nonan-1-one] |  |  |  |  |
| ≥ 1000 nM |  | ≥ 250 nM | ≥ 250 nM |  | CC(C)Oc1ccc(-c2n[nH]c3ccc(N4CC[C@]5(CCN(CC(=O)N6CCC(F)(c7ccc(-c8ncn(C)n8)cc7)CC6)C5)C4=O)cc23)cn1 [Example 27] |  |  |  |  |
